Common to all, as to assay type: physicochemical
Data set [1] can be described thus: Circularly polarized luminescence (CPL), dissymmetry factor glum. The note with it: DMSO; wavelength in parentheses in the cell. As to the method: (§1) Steady-state room temperature photoluminescence measurements were performed with an Edinburgh Instrument FLSP920 spectrophotometer equipped with a Xe900 continuous xenon lamp, μF920 microsecond flash lamp and a single photon counting photomultiplier tube. Spectra were corrected with the bundled F900 software. Solution-state measurements were conducted using quartz curettes of 10 mm path length. CPL measurements were conducted on a custom built spectrometer^63 (in Durham University) consisting of a laser driven light source (Energetiq EQ-99 LDLS, spectral range 170 to 2100 nm) coupled to an Acton SP2150 monochromator (600 g/nm, 300 nm Blaze) that allows excitation wavelengths to be selected with a 6 nm FWHM band-pass. The collection of the emitted light was facilitated (90° angle set up, 1 cm path length quartz curette) by a Lock-In Amplifier (Hinds Instruments Signaloc 2100) and Photoelastic Modulator (Hinds Instruments PEM-90). The differentiated light was focused onto an Acton SP2150 monochromator (1200 g/nm, 500 nm Blaze) equipped with a high sensitivity cooled Photo Multiplier Tube (H10723-20 Extended red-multialkali PMT based photosensor (5V)). Spectra were recorded using a 5 spectral average sequence in the range of 570-720 nm with 0.5 nm spectral intervals and 500 μs integration time.

A short description of data set [2]: Water solubility of complexes.
A short description of data set [3]: Absorption and photoluminescence (quantum yield, lifetime, q). The note with it: for R, I(5D0 → 7F2)/I(5D0 → 7F1): asymmetry ratio, 10 in MeOH; for R, I(5D0 → 7F2)/I(5D0 → 7F1) / λabs(max): room temperature, 11 in DMSO; for ΦDMSO (%): luminescence quantum yield in DMSO; for λabs(max): 10 measured in MeOH. More on the design: λabs(max): unit not given here. On the procedure: as §1, with “Absorption spectra of complexes were measured with HP UV-8453 spectrophotometer. Steady-state” for “Steady-state”, “time. The recorded CPL spectrum underwent a 25% Fourier transformation smoothening protocol using Origin 8.0 Software (Origin Labs) to enhance appearance (all calculations were carried out using raw spectral data).” for “time.”
The shift in absorption is caused by electronic communication between the electropositive lanthanide center and the chromophore. […] These are not observed for 11, however, as we believe the steric effect of the planar phenyl ring of the benzyl group could not be alleviated by appropriate rotation, whereas that of the isobutyl group could.
The luminescence quantum yields of the complexes are decent in water and HEPES solution, although they are much higher in DMSO, due to the nonradiative quenching by O—H oscillators of water molecules in the second coordination sphere (Table 6). The intrinsic quantum yields^61—a calculated value evaluating the quantum yield of Eu(III) via direct metal excitation—of the complexes are calculated, and, as expected, the values are very similar, except for 10. The higher value corroborates with the shift in absorption maximum, for which we believe the reason is due to a shorter europium—chromophore distance and better interaction. On the other hand, the sensitization efficiencies of the complexes vary. […] The relatively remarkable ηsens of 13 is attributed to its structural rigidity, as both the tetraaza backbone and the acetate arms are modified with a chrial substituent, i.e., double chirality. The double chirality is also attributed for the increase in luminescence quantum yield compared to that of 12a/12b.

The nature of data set [4]: Rate of complexation of ligands with metal salts under mild (radiolabeling) conditions. As to conditions: pD 6.0-7.0, 50° C., 1H NMR titration.

Marks after values point to notes of the source that are not given here. Where only a bound is given, the exact number is not on record here.

Take `COc1cc(OC)c(C#Cc2cc(CN3C[C@H](CC(C)C)N(CC(=O)[O-])C[C@H](CC(C)C)N(CC(=O)[O-])C[C@H](CC(C)C)N(CC(=O)[O-])C[C@@H]3CC(C)C)nc(P(C)(=O)[O-])c2)c(OC)c1.[Eu+3]` [Complex 10]: in data set [1], the “glum ΔJ = 1 (λ) DMSO” value is on record as −0.11 (591) and the “glum ΔJ = 3 (λ) DMSO” value is −0.12 (657). In data set [2], the water solubility result is recorded as “poor water solubility”. For the same compound, in data set [3], the “R, I(5D0 → 7F2)/I(5D0 → 7F1)” value was determined as 3.01; the “ΦDMSO (%)” value is given as 45.3%; the “λabs(max)” value is 364. Moreover, the “q (calculated from ref 60)” value in data set [3] (from lifetimes in MeOH and MeOD) was 0.05^g. Besides, the “ΦEuEu (%)” value in data set [3] (intrinsic quantum yield, calculated value) is listed as 36.9%. In addition, in data set [3] (luminescence lifetime, 5D0 → 7F2 transition, D2O (MeOD for 10)), the “τD2O/MeOD” value is recorded as 1.74 ms. Moreover, the “τH2O/MeOH” value in data set [3] (luminescence lifetime, 5D0 → 7F2 transition, H2O (MeOH for 10)) is on record as 1.39 ms. In data set [3] (luminescence quantum yield relative to quinine sulfate in 0.1M H2SO4, H2O (MeOH for 10, insoluble in H2O)), the “ΦH2O/MeOH (%)” value is 11.1%. Moreover, in data set [3] (sensitization efficiency, calculated according to ref 61), the “ηsens (%)” value is recorded as 30.1%.
Take `COc1cc(OC)c(C#Cc2cc(CN3CC(Cc4ccccc4)N(CC(=O)[O-])CC(Cc4ccccc4)N(CC(=O)[O-])CC(Cc4ccccc4)N(CC(=O)[O-])CC3Cc3ccccc3)nc(P(C)(=O)[O-])c2)c(OC)c1.[Eu+3]` (stereo not drawn) [Complex 11]: in data set [1], the “glum ΔJ = 3 (λ) DMSO” value was “+0.25 (657)”. The water solubility entry in data set [2] was “poor water solubility”. For the same compound, in data set [3], the “R, I(5D0 → 7F2)/I(5D0 → 7F1)” value is given as 2.69; the “ΦDMSO (%)” value was determined as 40.4%; the “λabs(max)” value was determined as 354.
Turning to `CC[C@H]1CN(CC(=O)O)[C@@H](CC)CN(CC(=O)O)[C@@H](CC)CN(CC(=O)O)[C@@H](CC)CN1CC(=O)O` [Complex L2, 2,2′,2″,2′″-((2S,5S,8S,11S)-2,5,8,11-tetraethyl-1,4,7,10-tetraazacyclododecane-1,4,7,10-tetrayl)tetraacetic acid], the “time to complete complexation with Eu(OTf)3” value in data set [4] was at most 5 min.
